The results in this text go back to patent US20050222225A1, “Use of compounds for increasing spermatozoa motility” (APPLIED RESEARCH SYSTEMS ARS HOLDING NV, priority 2002, published 2005).

Experiment [1] has as its system C5a-mediated AKT phosphorylation in Raw 264-7 macrophages. The experiment in a line: Cell based ELISA: Akt/PKB phosphorylation in macrophages after stimulation with C5a. The note with it: Mus musculus, 50 nM C5a; for inhibition at 1 µM: RAW264.7, compound at 1 μM; for inhibition at 10 µM: RAW264.7, compound at 10 μM. As for the experimental part:
b) Cell Based ELISA to Monitor PI3K Inhibition: Measurement of Akt/PKB phosphorylation in macrophages after stimulation with C5a: Raw 264: Raw 264-7 macrophages (cultured in DMEM-F12 medium containing 10% Fetal Calf serum and antibiotics) are plated at 20'000 cells/well in a 96 MTP 24 h before cell stimulation. Previous to the stimulation with 50 nM of Complement 5a (C5a; which is a well known chemokine which stimulates the used cells) during 5 minutes, Cells are serum starved for 2 h, and pretreated with inhibitors for 20 minutes. After stimulation cells are fixed in 4% formaldehyde for 20 minutes and washed 3 times in PBS containing 1% Triton X-100 (PBS/Triton). Endogenous peroxidase is blocked by a 20 minutes incubation in 0.6% H2O2 and 0.1% Sodium Azide in PBS/Triton and washed 3 times in PBS/Triton. Cells are then blocked by 60 minutes incubation with 10% fetal calf serum in PBS/Triton. Next, phosphorylated Akt/PKB is detected by an overnight incubation at 4° C. with first antibody (anti phospho Serine 473 Akt IHC, Cell Signaling) diluted 800-fold in PBS/Triton, containing 5% bovine serum albumin (BSA). After 3 washes in PBS/Triton, cells are incubated for 60 minutes with a peroxidase conjugated goat-anti-rabbit antibody (1/400 dilution in PBS/Triton, containing 5% BSA), washed 3 times in PBS/Triton, and 2 times in PBS and further incubated in 100 μl of substrate reagent solution (R&D) for 20 minutes. The reaction is stopped by addition of 50 μl of 1 M H2SO4 and absorbance is read at 450 nm. The values indicated reflect the percentage of inhibition of AKT phoshorylation as compared to basal level. Said values show a clear effect of the azolidinone-vinyl fused-benzene compounds on the activation of AKT phosphorylation in macrophages.
A general note: ELISA stands for enzyme-linked immunosorbent assay.

Another experiment concerns spermatozoa. Put plainly: Sperm cell parameters by computer aided sperm analysis (CASA). It counts as cell-based, human. The following applies: 10 μM; sperm samples from oligo-asthenospermic subjects; vs control sample. The text has this:
In the experiments the following examples are based on, standard methods of in vitro fertilization have been used. With regard to the details of these methods, reference is made to the “WHO manual” (WHO laboratory manual for the examination of human semen and sperm-cervical mucus interactions, 4th edition, Cambridge University Press 1999). In particular, the direct swim-up method can be taken from pp. 104 to 106 of this manual.
b) Effect of Example 1 Compound on Further Sperm Cell Parameters:
These parameters are determined by computer aided sperm analysis (CASA) in sperm samples from different oligo-asthenospermic subjects.

Experiment [2] addresses Human recombinant GST-PI3Kγ (Homo sapiens, UniProt P48736). The experiment in a line: High Throughput PI3K Lipid Kinase Assay (scintillation proximity assay, neomycin-coated beads). It counts as biochemical. The method, then: A. a) High Throughput PI3K Lipid Kinase Assay (Binding Assay):
The assay combines the scintillation proximity assay technology (SPA, Amersham) with the capacity of neomycin (a polycationic antibiotic) to bind phospholipids with high affinity and specificity. The Scintillation Proximity Assay is based on the properties of weakly emitting isotopes (such as ^3H, ^125I, ^33P). Coating SPA beads with neomycin allows the detection of phosphorylated lipid substrates after incubation with recombinant PI3K and radioactive ATP in the same well, by capturing the radioactive phospholipids to the SPA beads through their specific binding to neomycin.
To a 384 wells MTP containing 5 μl of the test compound of formula (I) (solubilized in 6% DMSO; to yield a concentration of 100, 30, 10, 3, 1, 0.3, 0.1, 0.03, 0.01, 0.001 μM of the test compound), the following assay components are added. 1) 5 μl (58 ng) of Human recombinant GST-PI3Kγ (in Hepes 40 mM, pH 7.4, DTT 1 mM and ethylenglycol 5%) 2) 10 μl of lipid micelles and 3) 10 μl of Kinase buffer ([^33P]ATP 45 μM/60 nCi, MgCl2 30 mM, DTT 1 mM, β-Glycerophosphate 1 mM, Na3VO4 100 μM, Na Cholate 0.3%, in Hepes 40 mM, pH 7.4). […] After precipitation of the neomycin-coated PVT SPA beads for 5 minutes at 1500×g, radioactive PtdIns(3)P is quantified by scintillation counting in a Wallac MicroBeta™ plate counter. […]
On the technique in general: Scintillation proximity formats need no separation of bound from free tracer.

Molecules are shown by their SMILES.

Chain of Human recombinant GST-PI3Kγ (P48736 whole entry): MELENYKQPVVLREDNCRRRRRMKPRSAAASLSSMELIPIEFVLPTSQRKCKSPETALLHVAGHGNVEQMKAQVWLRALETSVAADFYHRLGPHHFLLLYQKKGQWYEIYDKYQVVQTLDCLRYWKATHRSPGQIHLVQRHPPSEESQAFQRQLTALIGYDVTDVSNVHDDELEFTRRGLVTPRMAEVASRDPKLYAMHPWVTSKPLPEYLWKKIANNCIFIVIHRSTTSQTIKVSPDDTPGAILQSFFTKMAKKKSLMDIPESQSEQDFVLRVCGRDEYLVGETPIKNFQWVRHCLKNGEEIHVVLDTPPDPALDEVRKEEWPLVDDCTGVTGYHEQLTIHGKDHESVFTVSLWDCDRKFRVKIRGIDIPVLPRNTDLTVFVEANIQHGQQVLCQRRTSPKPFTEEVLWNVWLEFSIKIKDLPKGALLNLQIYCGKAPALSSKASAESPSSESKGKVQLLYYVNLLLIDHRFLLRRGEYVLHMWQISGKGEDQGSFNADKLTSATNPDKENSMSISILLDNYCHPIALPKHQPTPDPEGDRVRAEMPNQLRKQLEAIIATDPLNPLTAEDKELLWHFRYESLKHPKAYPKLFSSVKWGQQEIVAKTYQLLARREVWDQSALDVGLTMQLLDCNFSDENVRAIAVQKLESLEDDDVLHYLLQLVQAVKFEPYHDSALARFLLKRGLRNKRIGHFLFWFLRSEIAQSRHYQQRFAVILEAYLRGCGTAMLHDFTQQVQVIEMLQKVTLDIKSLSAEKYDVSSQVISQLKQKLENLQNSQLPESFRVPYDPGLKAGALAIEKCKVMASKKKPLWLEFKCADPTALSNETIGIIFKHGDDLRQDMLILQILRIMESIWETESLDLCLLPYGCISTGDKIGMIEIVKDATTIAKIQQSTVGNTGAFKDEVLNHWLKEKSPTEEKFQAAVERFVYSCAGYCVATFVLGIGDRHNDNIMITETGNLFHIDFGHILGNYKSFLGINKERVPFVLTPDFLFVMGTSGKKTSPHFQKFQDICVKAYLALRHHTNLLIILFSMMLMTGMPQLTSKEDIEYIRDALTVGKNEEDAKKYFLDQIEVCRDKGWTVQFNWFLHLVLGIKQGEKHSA

The inhibition is the change of the read-out against control, counted positive when it falls. High values mean a strong effect, low ones a weak effect. `CN(C)c1ncnc2ccc(/C=C3\SC(=O)NC3=O)cc12` [Example 17, 5-(4-Dimethylamino-quinazolin-6-ylmethylene)-thiazolidine-2,4-dione]: in experiment [1], testing at 1 µM gave an inhibition of 95%.

For the compound `O=C1NC(=O)/C(=C/c2ccc3c(c2)OCO3)S1` [Example 1, 5-(1,3-benzodioxol-5-ylmethylene)-1,3-thiazolidine-2,4-dione], in the experiment on spermatozoa, the “average path velocity (VAP)” value is reported as “increased in a statistically significant manner”, the “hyper-activated sperm fraction (HA)” value is listed as “increased in a statistically significant manner”, the “percentage curvilinear velocity (VCL)” value is “increased in a statistically significant manner” and the “straight-line velocity (VSL)” value was “increased in a statistically significant manner”. The compound also yielded an inhibition at 10 µM in experiment [1] of around 100%.

A word on the IC50: it is the concentration at which inhibition is half-maximal. Consider `N=C1NC(=O)/C(=C/c2ccc3ncnc(N4CCCCC4)c3c2)S1` [Example 41, 2-Imino-5-(4-piperidine-quinazolin-6-ylmethylene)-thiazolidin-4-one], for which the IC50 in experiment [2] is below 1000 nM.

Consider `O=C1NC(=O)/C(=C/c2ccc3nsnc3c2)S1` [Example 107, 5-Benzo[1,2,5]thiadiazol-5-ylmethylene-thiazolidine-2,4-ione], for which the IC50 in experiment [2] was below 1000 nM. In experiment [1], this compound registered an inhibition at 10 µM of around 100%.

Regarding `N=C1NC(=O)/C(=C/c2ccc3nccnc3c2)S1` [Example 66, 2-Imino-5-quinoxalin-6-ylmethylene-thiazolidin-4-one], in experiment [1], the inhibition at 10 µM was around 100%.

With `O=C1NC(=O)/C(=C/c2ccc3occ(/C=C/C(=O)N4CCCCC4)c3c2)S1` [Example 73, 5-[3-(3-Oxo-3-piperidin-1-yl-propenyl)-benzofuran-5-ylmethylene]-thiazolidine-2,4-dione], the inhibition at 1 µM in experiment [1] came to 95%.

In the case of `O=C1NC(=O)C(=Cc2ccc3ncnc(N4CCCCC4)c3c2)S1` [Example 19, 5-[(4-piperidin-1-ylquinazolin-6-yl)methylene]-1,3-thiazolidine-2,4-dione], in experiment [1], the inhibition at 1 µM was 95% and the inhibition at 10 µM was around 100%.
